# In patent US7714135B2, “Tetrahydropyridothiophenes for the treatment of proliferative diseases such as cancer” (4SC AG, priority 2005, dated 2010):
# Columns and labels:
# [1] = system: RKO (RKOp27) human colon adenocarcinoma cells; experiment: Alamar Blue cell viability assay, anti-proliferative/cytotoxic activity on proliferating (uninduced) RKOp27 cells; type: cell-based; conditions: RKOp27 subclone without inducer, 72 hours incubation, read-out: IC50 RKO p27 uninduced (proliferating)
# Protocol: The anti-proliferative/cytotoxic activity of the compounds described herein, can be tested on subclones of RKO (RKOp27) human colon adenocarcinoma cells (Schmidt et al., Oncogene 19, 2423-2429; 2000) using the Alamar Blue cell viability assay (described in O'Brien et al. Eur J Biochem 267, 5421-5426, 2000). The compounds are dissolved as 20 mM solutions in dimethylsulfoxide (DMSO) and subsequently diluted in semi-logarithmic steps. DMSO dilutions are further diluted 1:100 into Dulbecco's modified Eagle's medium (DMEM) containing 10% fetal calf serum to a final concentration twice as much as the final concentration in the test. RKO subclones are seeded into 96 well flat bottom plates at a density of 4000 cells per well in a volume of 50 μl per well. 24 hours after seeding the 50 μl each of the compound dilutions in DMEM medium are added into each well of the 96 Well plate. Each compound dilution is tested as quadruplicates. Wells containing untreated control cells are filled with 50 μl DMEM medium containing 1% DMSO. The cells are then incubated with the substances for 72 hours at 37° C. in a humidified atmosphere containing 5% carbon dioxide. To determine the viability of the cells, 10 μl of an Alamar Blue solution (Biosource) are added and the fluorescence is measured at an extinction of 544 nm and an emission of 590 nm. For the calculation of the cell viability the emission value from untreated cells is set as 100% viability and the emission rates of treated cells are set in relation to the values of untreated cells. Viabilities are expressed as % values.
# The corresponding IC50 values of the compounds for anti-proliferative/cytotoxic activity are determined from the concentration-effect curves.
# Representative IC50 values for anti-proliferation/cytotoxicity determined in the mentioned assay follow from the following table A, in which the numbers of the compound correspond to the numbers of the examples.
# [2] = system: RKO colon adenocarcinoma cells (RKOp27) arrested by the expression of ectopic p27Kip1; experiment: Alamar Blue cell viability assay on RKOp27 cells arrested by Ponasterone A-induced p27Kip1 expression (cell cycle specific mode of action); type: cell-based; conditions: Homo sapiens, RKOp27 subclone induced with 10 μM Ponasterone A, 72 hours incubation, read-out: IC50 RKO p27 induced (arrested)
# Protocol: To determine the cell cycle specific mode of action, subclones of RKO colon adenocarcinoma cells (RKOp27 or RKOp21 as described by Schmidt et al. in Oncogene 19, 2423-2429; 2000) are seeded into 96 well flat bottom plates at a density of 16000 cells per well in a volume of 50 μl per well in DMEM growth medium with 10% FCS containing 10 μM Ponasterone A. 24 hours after seeding the 50 μl each of the compound dilutions in DMEM medium are added into each well of the 96 Well plate. Each compound dilution is tested as quadruplicates. Wells containing untreated control cells are filled with 50 μl DMEM medium containing 1% DMSO. The cells are then incubated with the substances for 72 hours at 37° C. in a humidified atmosphere containing 5% carbon dioxide. To determine the viability of the cells, 10 μl of an Alamar Blue solution (Biosource) are added and the fluorescence was measured at an extinction of 544 nm and an emission of 590 nm. For the calculation of the cell viability the emission value from untreated cells is set as 100% viability and the emission rates of treated cells are set in relation to the values of untreated cells. Viabilities are expressed as % values. Viability is compared of proliferating cells grown in the absence of the inducer Ponasterone A, versus viability of cells arrested by the expression of ectopic p27Kip1 induced by Ponasterone A.
Structure (SMILES),IC50 [1] [nM],IC50 [2] [nM]
"CCOC(=O)N1CCc2c(sc(NC(=O)CC(C)(C)c3ccccc3)c2C#N)C1 [Example 47, 3-Cyano-2-(3-methyl-3-phenyl-butanoylamino)-4,7-dihydro-5H-thieno[2,3-c]pyridine-6-carboxylic acid ethyl ester]",≤ 300,> 100000
"CCOC(=O)N1CCc2c(sc(NC(=O)C3CC3c3ccco3)c2C#N)C1 (centres unmarked) [Example 48, 3-Cyano-2-{[1-(2-furan-2-yl-cyclopropyl)-methanoyl]-amino}-4,7-dihydro-5H-thieno[2,3-c]pyridine-6-carboxylic acid ethyl ester]",≤ 300,> 100000
"N#Cc1c(NC(=O)CCc2ccccc2)sc2c1CCN(C(=O)OCCN1CCOCC1)C2 [Example 50, 3-Cyano-2-(3-phenyl-propanoylamino)-4,7-dihydro-5H-thieno[2,3-c]pyridine-6-carboxylic acid 2-morpholin-4-yl-ethyl ester]",≤ 300,> 100000
"N#Cc1c(NC(=O)CCc2ccco2)sc2c1CCN(C(=O)OCCN1CCOCC1)C2 [Example 51, 3-Cyano-2-(3-furan-2-yl-propanoylamino)-4,7-dihydro-5H-thieno[2,3-c]pyridine-6-carboxylic acid 2-morpholin-4-yl-ethyl ester]",≤ 300,> 100000
"N#Cc1c(NC(=O)CCc2ccccc2)sc2c1CCN(C(=O)OCCn1ccnc1)C2 [Example 54, 3-Cyano-2-(3-phenyl-propanoylamino)-4,7-dihydro-5H-thieno[2,3-c]pyridine-6-carboxylic acid 2-imidazol-1-yl-ethyl ester]",≤ 300,> 100000
"N#Cc1c(NC(=O)CCc2ccco2)sc2c1CCN(C(=O)OCCO)C2 [Example 55, 3-Cyano-2-(3-furan-2-yl-propanoylamino)-4,7-dihydro-5H-thieno[2,3-c]pyridine-6-carboxylic acid 2-hydroxy-ethyl ester]",≤ 300,> 100000
"N#Cc1c(NC(=O)CCc2ccccn2)sc2c1CCN(C(=O)OCCc1cccnc1)C2 [Example 107, 3-Cyano-2-(3-pyridin-2-yl-propanoylamino)-4,7-dihydro-5H-thieno[2,3-c]pyridine-6-carboxylic acid 2-pyridin-3-yl-ethyl ester]",300 to 2000,> 100000
